These results are taken from ChEMBL document CHEMBL5113502, “Accommodation of ring C expanded deoxyvasicinone in the HDAC inhibitory pharmacophore culminates into a tractable anti-lung cancer agent and pH-responsive nanocarrier” (Eur J Med Chem, 2022).

Experiment [1] has as its system A549. Put plainly: Induction of cell cycle arrest in human A549 cells assessed as accumulation at G0/G1 phase at 0.5 times IC50 after 48 hrs by flow cytometry. The experiment is classed as functional, cell-based. In general terms: A flow cytometer gives signals particle by particle.
For experiment [2], the system named is A549. The experiment can be described thus: Induction of cell cycle arrest in human A549 cells assessed as accumulation at SubG1 phase at IC50 after 48 hrs by flow cytometry. The experiment is classed as functional, cell-based.
Experiment [3] relates to A549. Put plainly: Induction of apoptosis in human A549 cells assessed as apoptotic bodies formation after 24 hrs by fluorescence microscopic analysis. The format is functional, cell-based. The settings on record: dose 0.1-1 µM, DDE = dose-dependent effect.
The target in experiment [4] is Histone deacetylase 5 (Homo sapiens, UniProt Q9UQL6). The experiment can be described thus: Inhibition of HDAC5 (unknown origin) by colorimetric method.
The target of experiment [5] is T1, Protein deacetylase HDAC6 (Homo sapiens, UniProt Q9UBN7).
T1 sequence (Q9UBN7 whole entry): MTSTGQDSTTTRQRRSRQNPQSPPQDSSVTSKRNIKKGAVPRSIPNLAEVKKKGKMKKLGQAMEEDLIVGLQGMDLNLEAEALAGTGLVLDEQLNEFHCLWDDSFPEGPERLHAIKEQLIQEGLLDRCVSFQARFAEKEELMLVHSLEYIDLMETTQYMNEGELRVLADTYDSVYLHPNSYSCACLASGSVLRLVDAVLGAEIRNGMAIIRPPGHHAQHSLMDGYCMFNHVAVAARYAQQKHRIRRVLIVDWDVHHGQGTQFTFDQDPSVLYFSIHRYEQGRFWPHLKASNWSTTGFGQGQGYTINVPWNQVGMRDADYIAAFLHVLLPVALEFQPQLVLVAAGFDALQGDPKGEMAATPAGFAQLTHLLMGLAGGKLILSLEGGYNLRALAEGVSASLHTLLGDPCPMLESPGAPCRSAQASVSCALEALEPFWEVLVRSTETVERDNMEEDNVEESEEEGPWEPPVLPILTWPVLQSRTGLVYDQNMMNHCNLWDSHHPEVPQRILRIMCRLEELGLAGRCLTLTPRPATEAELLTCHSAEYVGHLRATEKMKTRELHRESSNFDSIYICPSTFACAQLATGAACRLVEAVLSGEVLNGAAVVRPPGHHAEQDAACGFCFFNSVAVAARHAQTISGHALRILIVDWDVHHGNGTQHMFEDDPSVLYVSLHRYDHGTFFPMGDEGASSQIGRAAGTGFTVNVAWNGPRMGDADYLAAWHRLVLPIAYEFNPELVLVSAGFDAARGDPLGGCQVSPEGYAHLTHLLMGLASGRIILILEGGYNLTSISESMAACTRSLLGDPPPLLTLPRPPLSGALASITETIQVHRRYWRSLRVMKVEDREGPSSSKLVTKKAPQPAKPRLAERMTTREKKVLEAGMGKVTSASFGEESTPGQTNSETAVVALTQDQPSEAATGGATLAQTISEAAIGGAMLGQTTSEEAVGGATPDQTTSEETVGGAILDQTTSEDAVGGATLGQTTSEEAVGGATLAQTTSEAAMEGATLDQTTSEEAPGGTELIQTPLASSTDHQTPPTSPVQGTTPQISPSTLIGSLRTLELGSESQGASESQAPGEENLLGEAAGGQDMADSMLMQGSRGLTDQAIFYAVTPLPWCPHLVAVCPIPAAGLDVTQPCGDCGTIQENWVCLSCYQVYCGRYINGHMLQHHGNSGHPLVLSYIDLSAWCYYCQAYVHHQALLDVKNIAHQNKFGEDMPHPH
Put plainly: Inhibition of HDAC6 (unknown origin) by colorimetric method.

In experiment [6] the target is T2, Histone deacetylase 8 (Homo sapiens, UniProt Q9BY41).
T2 sequence (Q9BY41 whole entry): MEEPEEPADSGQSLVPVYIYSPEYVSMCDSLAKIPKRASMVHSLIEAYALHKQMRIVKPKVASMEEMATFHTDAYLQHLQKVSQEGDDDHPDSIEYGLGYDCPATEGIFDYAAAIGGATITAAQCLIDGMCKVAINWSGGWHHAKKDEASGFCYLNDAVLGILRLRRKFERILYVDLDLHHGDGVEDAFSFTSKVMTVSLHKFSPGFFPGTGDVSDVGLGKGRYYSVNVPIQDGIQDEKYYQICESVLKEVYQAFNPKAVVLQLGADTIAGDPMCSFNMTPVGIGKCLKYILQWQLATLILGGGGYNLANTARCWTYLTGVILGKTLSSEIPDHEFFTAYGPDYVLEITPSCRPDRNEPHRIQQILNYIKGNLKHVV
Put plainly: Inhibition of HDAC8 (unknown origin) by colorimetric method.

Experiment [7] has as its target Histone deacetylase 9 (Homo sapiens, UniProt Q9UKV0). The experiment can be described thus: Inhibition of HDAC9 (unknown origin) by colorimetric method.
The species entered for experiment [8] is Homo sapiens. Put plainly: Selectivity index, ratio of IC50 for HDAC 1 (unknown origin) to IC50 for HDAC 6 (unknown origin).
The species entered for experiment [9] is Homo sapiens. The experiment can be described thus: Selectivity index, ratio of IC50 for HDAC 2 (unknown origin) to IC50 for HDAC 6 (unknown origin).
Experiment [10] is filed under the species Homo sapiens. Put plainly: Selectivity index, ratio of IC50 for HDAC3 (unknown origin) to IC50 for HDAC 6 (unknown origin).
Experiment [11] is filed under the species Homo sapiens. The experiment can be described thus: Selectivity index, ratio of IC50 for HDAC4 (unknown origin) to IC50 for HDAC 6 (unknown origin).
The species entered for experiment [12] is Homo sapiens. The experiment can be described thus: Selectivity index, ratio of IC50 for HDAC9 (unknown origin) to IC50 for HDAC 6 (unknown origin).
Experiment [13] is filed under the species Homo sapiens. Put plainly: Selectivity index, ratio of IC50 for HDAC6 (unknown origin) to IC50 for HDAC 3 (unknown origin).
For experiment [14], the species on record is Homo sapiens. Put plainly: Selectivity index, ratio of IC50 for HDAC7 (unknown origin) to IC50 for HDAC 1 (unknown origin).
The species named for experiment [15] is Homo sapiens. Put plainly: Selectivity index, ratio of IC50 for HDAC8 (unknown origin) to IC50 for HDAC 1 (unknown origin).
In experiment [16] the test system is A549. The experiment can be described thus: Downregulation of HDAC1 expression in human A549 cells at 0.1 to 1 uM after 24 hrs by Western blot analysis. The format is functional, cell-based. The settings on record: dose 0.1-1 µM.

Activity calls are given as the source filed them. The calls are words filed in the database; no cut-off is given here.

A word on the IC50: it is the concentration at which inhibition is half-maximal. Read a low IC50 as greater potency in that assay.

Histone deacetylase 9, sequence (Q9UKV0 whole entry): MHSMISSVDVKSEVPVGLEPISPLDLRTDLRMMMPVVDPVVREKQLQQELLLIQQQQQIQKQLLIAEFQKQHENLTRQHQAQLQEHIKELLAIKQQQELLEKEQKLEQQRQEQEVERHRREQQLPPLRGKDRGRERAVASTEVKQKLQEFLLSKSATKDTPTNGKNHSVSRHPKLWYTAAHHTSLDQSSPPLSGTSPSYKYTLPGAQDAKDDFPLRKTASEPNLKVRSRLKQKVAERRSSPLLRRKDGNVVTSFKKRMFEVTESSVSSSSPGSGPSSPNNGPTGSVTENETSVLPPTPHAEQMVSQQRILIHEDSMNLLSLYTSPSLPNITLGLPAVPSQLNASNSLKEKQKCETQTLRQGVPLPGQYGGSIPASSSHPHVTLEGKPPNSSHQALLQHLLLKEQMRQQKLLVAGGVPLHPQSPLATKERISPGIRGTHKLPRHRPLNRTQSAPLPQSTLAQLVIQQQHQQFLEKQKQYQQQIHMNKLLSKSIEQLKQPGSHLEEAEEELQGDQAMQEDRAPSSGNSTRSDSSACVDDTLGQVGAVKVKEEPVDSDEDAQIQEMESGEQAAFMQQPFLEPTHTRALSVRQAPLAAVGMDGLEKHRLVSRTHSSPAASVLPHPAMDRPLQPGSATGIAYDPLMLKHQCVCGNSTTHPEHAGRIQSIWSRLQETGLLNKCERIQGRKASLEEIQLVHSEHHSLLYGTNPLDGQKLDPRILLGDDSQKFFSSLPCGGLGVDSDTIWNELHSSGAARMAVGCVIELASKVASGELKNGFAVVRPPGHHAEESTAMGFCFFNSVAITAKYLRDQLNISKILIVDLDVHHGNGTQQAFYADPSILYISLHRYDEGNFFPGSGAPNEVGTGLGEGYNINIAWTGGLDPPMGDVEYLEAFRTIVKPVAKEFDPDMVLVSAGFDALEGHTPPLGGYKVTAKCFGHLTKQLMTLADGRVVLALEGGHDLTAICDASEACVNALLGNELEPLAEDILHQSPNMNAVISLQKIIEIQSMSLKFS
Histone deacetylase 5, sequence (Q9UQL6 whole entry): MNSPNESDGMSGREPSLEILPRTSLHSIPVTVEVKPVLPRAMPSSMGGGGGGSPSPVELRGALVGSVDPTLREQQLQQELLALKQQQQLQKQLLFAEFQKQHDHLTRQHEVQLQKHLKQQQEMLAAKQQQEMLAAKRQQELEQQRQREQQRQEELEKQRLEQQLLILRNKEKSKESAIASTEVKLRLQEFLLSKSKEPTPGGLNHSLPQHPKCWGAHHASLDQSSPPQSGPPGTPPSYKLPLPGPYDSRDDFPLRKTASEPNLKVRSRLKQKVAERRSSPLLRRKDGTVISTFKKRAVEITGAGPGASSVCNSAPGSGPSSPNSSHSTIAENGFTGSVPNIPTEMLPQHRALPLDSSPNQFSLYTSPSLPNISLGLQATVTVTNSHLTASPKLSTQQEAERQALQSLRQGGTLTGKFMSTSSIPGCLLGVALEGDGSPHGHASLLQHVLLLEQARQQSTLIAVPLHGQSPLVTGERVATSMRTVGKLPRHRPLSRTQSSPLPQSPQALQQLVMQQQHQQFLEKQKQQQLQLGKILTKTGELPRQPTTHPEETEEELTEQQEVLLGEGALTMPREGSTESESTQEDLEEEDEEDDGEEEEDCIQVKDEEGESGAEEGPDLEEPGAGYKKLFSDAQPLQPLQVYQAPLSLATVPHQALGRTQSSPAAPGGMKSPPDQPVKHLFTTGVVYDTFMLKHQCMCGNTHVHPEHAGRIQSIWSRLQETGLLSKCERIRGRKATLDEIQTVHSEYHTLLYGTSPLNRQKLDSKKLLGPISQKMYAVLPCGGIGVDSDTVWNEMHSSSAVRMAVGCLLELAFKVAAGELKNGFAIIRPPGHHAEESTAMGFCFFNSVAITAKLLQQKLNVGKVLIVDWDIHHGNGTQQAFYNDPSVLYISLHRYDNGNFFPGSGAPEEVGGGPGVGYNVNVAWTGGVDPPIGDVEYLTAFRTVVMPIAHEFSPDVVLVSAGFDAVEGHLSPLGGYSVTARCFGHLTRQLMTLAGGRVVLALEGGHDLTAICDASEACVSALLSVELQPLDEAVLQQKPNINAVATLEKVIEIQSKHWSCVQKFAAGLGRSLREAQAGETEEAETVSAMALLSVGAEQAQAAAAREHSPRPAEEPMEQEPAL

On to `O=C(/C=C/c1ccc(CNc2ccc3nc4n(c(=O)c3c2)CCCCC4)cc1)NO`, for which the result in [1] and in experiment [2] was Active. For the same compound, the Activity result in [3] is “Dde”. Also, the IC50 is 0.617 µM in [4], 0.0129 µM in [5], 0.178 µM in [6] and 4.32 µM in experiment [7]. Besides, the Ratio IC50 in experiment [8] was determined as 3.86; in [9], 97.7; in experiment [10], 5.31; in experiment [11], 126; in [12], 335; in experiment [13] it was 0.188. The Ratio IC50 was determined as 81.8 in [14] and 3.56 in experiment [15]. Moreover, in experiment [16], the inhibition result was “Active”.
